Measurements: patent publication US20110152218A1, “CRYSTALLINE PHOSPHOLIPID, METHOD FOR ITS PRODUCTION AND USE IN TREATING DAMAGED TISSUE” (priority 2008, published 2011)
Entries after “also recorded” stand apart in the source; their conditions may differ.

Tests used:
Format in all cases: cell-based, rabbit
[1] = tested on: cells derived from the tendon sheath; assay: WST-1 proliferation assay, tendon sheath cells
Procedure: (§1) Therefore all three-cell types were established and cultured as separate cell strains.
(§2) Tendon derived fibroblasts were cultured in Dulbecco's Modified Eagles Medium (DMEM) with 10% fetal calf serum, 2 mM glutamine, 100 U/ml penicillin and […] streptomycin (NGM).
(§3) A 5 mg/ml solution of the phospholipid prepared according to Example 1 and referred to in this example as “Pumactant” was dissolved in serum free media in a sterile 100 ml bottle incubated at 37° C. and then diluted further to a concentration of 1 mg/ml.
(§4) Fibroblasts derived from tendons were seeded at 5×10^3/well into a 96 microtitre plate (Greiner) and allowed to attach overnight in minimum media (DMEM supplemented with 0.4% FCS) to maintain cells in a healthy but quiescent state. After 24 hrs, the media was aspirated and replaced by test media (minimum media with concentrations of pumactant; or different concentrations of fetal calf serum; or different concentrations of TGF-β1) and cultured for 24, 48 and 72 hours. Cell number was assessed using WST-1 assay (Roche Products Ltd). Test media was removed and the wells washed twice with minimal media, minimal media was replaced and 10 μl WST-1 solution was added to each well. The cells were incubated for 1 hour in standard tissue culture conditions. The absorbance, which related to the number of viable cells converting the reagent to coloured formazan crystals, was read at 450 nm on a Bio-Rad Plate reader. Experiments were performed in triplicate for each cell strain.

[2] = tested on: cells derived from the surface of the tendon (epitenon); assay: WST-1 proliferation assay, tendon surface cells
Procedure: as §1, §2, §3, §4

[3] = tested on: tendon core cells (endotenon); assay: WST-1 proliferation assay, tendon core cells
Procedure: as §1, §2, §3, §4

[4] = tested on: collagen type I, collagen type III, fibronectin, PAI-1, tPA gene transcription in surface derived cells; assay: QRT-PCR gene transcription, surface derived cells; conditions: time course
Procedure: (§5) Cells were placed in serum free media for 24 hrs prior to stimulation with pumactant or TGF-β1; viability was assessed using Trypan blue (Sigma; data not shown). Quiescent cells were treated with pumactant (1 mg/ml) for 0-24 hrs or TGF-β1 for 0-24 h ours (positive control). Total RNA was isolated from treated and untreated samples using Trizol (Gibco). Quant-iT™ Ribogreen® RNA kit (Invitrogen) was used to determine RNA concentration. First strand cDNA was synthesized using the StrataScript® first-strand synthesis system (Stratagene™) with oligonucleotide dTs (0.5 μg/μl) according to manufacturer's instructions.
(§6) Two μl of the first strand cDNA product was used for amplification in triplicate in a 25 μl reaction solution containing 12.5 μl of SYBR Green PCR Master Mix (Stratagene™, La Jolla, Calif.) and 10 pM of each primer as per manufacturer's instructions. Primer sequences are identified in Table 1. The primer sequences are also listed in the sequence listing which is attached to the specification of the present application and made a part thereof.
(§7) The PCR reaction was performed on a MX3000P (Stratagene, La Jolla, Calif.). The PCR program consisted of an initial denaturation where the reaction was incubated for 10 min at 95° C., the second step the DNA was amplified for 40 cycles of 30 sec at 95° C. annealing of primers for 1 min at 60° C. and an extension at 72° C. for 30 sec. Dissociation curve was performed to ensure no primer-dimers were present at the end of each PCR run.
(§8) The relative expression software tool (REST©) was used for the calculation of relative expression levels in real-time PCR (Pfaffl et al, 2002). This mathematical model is based on the PCR efficiencies and the mean crossing point deviation between the treated and untreated cells. The target gene expression was normalized with two housekeeping genes: GAPDH and ACTB. Statistical analysis of group differences was performed by Pair Wise Fixed Reallocation Randomization Test©, implemented in the REST-XL software (Pfaffl et al, 2002) and the coefficient of variance was given. Sigma Plot was used to illustrate the logarithmic graphs.

[5] = tested on: collagen type I, collagen type III, fibronectin, PAI-1, tPA gene transcription in sheath derived cells; assay: QRT-PCR gene transcription, sheath derived cells; conditions: time course, pumactant 1 mg/ml or TGF-β1, n=3
Procedure: as §5, §6, §7, §8

[6] = tested on: collagen type I, collagen type III, fibronectin, PAI-1, tPA gene transcription in core derived cells; assay: QRT-PCR gene transcription, core derived cells; conditions: 48-hour time course, pumactant 1 mg/ml or TGF-β1 2 ng/ml, n=3
Procedure: as §5, with “Quiescent cells were treated with pumactant (1 mg/ml) for 0-24 hrs or TGF-β1 for 0-24 h ours (positive control).” left out
as §6, §7, §8

[7] = pumactant 1 mg/ml or TGF-β1, n=3

“TGF-β1: growth factor used as positive control” was tested, and the “cell number of sheath cells compared to control media” value ([1]; 24 hours, the other / various concentrations) was “no statistical significance; also recorded: no statistical changes in cell number”, the “proliferation of sheath cells” value ([1]; 48 hours, any concentration) was “no statistical significance for any concentration” and the “proliferation of sheath cells” value ([1]; 72 hours, 0.5 ng/ml of TGF-β1) was “statistical significant increase”. The “proliferation of surface cells” value ([2]; 24 hours, over the tested concentrations) was “no statistical significant difference at any concentration”, the “proliferation of surface cells” value ([2]; 48 hours, various concentrations of TGF-β1) was “No concentrations of TGF-β1 showed any statistical increase; also recorded: no statistical significance” and the “proliferation of surface cells compared to minimal media” value ([2]; 72 hours, 2 ng/ml of TGF-β1, FIG. 24C) was “statistically significant increase in proliferation; also recorded: increase was identified at 2 ng/ml”. The “proliferation of core cells” value ([3]; 24 hours, over the tested concentrations, FIG. 25) was “no statistical increase in proliferation”, the “proliferation of core cells” value ([3]; 48 hours, various concentrations) was “no statistical significance” and the “proliferation of core cells” value ([3]; 72 hours, any concentration, FIG. 27) was “no statistical significance”. For the same substance, the PAI-1 gene transcription [4, 7] was “up regulation in response to TGF-β1, which was statistically significant at 24 hours for fibronectin (p=0.03) and 4 hours for PAI-1”, the “collagen type III gene transcription” value [4, 7] was “statistically significant down regulation at 1 hrs (*p=0.036), 2 hrs (*p=0.001), 6 hrs (*p=0.038), 16 hrs and 48 hrs” and the fibronectin gene transcription [4, 7] was “up regulation in response to TGF-β1, which was statistically significant at 24 hours for fibronectin”. For the same substance, the “collagen type I gene transcription” value ([4]; pumactant 1 mg/ml or TGF-β1, vs untreated, normalized with GAPDH and ACTB, n=3) was “up regulation of Collagen type I gene transcription which was statistically significant at 24 and 48 hours; also recorded: statistically significant up regulation at 24 hours (*p=0.025) and 48 hours”, the PAI-1 gene transcription [5] was “no statistical changes over the whole time course” and the “collagen type I gene transcription” value [5] was “up regulate of Collagen type I gene transcription over the time course though this did not reach statistical significance”. The “collagen type III gene transcription” value [5] was “up regulation, which was statistically significant at 6 hours, 8 hours (p=0.03; FIG. 30), 16 and 24 hours; also recorded: statistically significant up regulation at 6 hrs (*p=0.03), 8 hrs (*p=0.037), 16 hrs (*p=0.012) and 24 hrs”, the fibronectin gene transcription [5] was “no statistical changes over the whole time course” and the tPA gene transcription [5] was “down regulation of gene transcription which was statistically significant at 2 hrs (p=0.013), 4 hours and 24 hours; also recorded: statistically significant down regulation at 2 hrs (*p=0.013), 4 hrs (*p=0.001) and 24 hrs”. For the same substance, the PAI-1 gene transcription [6] was “up regulation of gene transcription at 2 and 4 hours but this was only statistically significant at 2 hours; also recorded: statistically significant increase at 2 hrs”, the “collagen type I gene transcription” value [6] was “no statistical change” and the “collagen type III gene transcription” value [6] was “statistically significant down regulation in the early stages of the time course 2, 6 and 8 hours; also recorded: statistically significant down regulation at 2, 6 and 8 hours”. The fibronectin gene transcription [6] was “at 6 h a statistically significant down regulation (p=0.024), which was later, reversed with a statistically significant up regulation at 24 and 48 hours; also recorded: significant down regulation of fibronectin gene transcription at 6 hours (*p=0.024) and a statistically significant up-regulation at 24 hrs (*p=0.03) and 48 hrs” and the tPA gene transcription [6] was “statistically significant down regulation in gene transcription at 1, 2, 6, 8 and 24 hrs 0.01) and 16 hours”.
